Counter-ions that a name gives are not always drawn.
What was measured:
Bcl-2 protein = Bcl-2 protein (histag-Bcl-2, UniProtKB P10415) (Homo sapiens (Human), UniProt P10415); assay: Inhibition of Bcl-2 by the fluorescence polarisation technique; format: binding; settings: fluorescence polarisation test; method A, or method B where underlined (underlining not visible); read-out: IC50 (nM) Bcl-2 FP
Description: Inhibition of Bcl-2 by the fluorescence polarisation technique

[1] = tested on: RS4;11 leukaemia tumour line; assay: In vitro cytotoxicity, Microculture Tetrazolium Assay (MTT); format: cell-based; settings: RS4;11 cells, 48 hours exposure
Procedure: The cytotoxicity studies were carried out on the RS4;11 leukaemia tumour line.
The cells are distributed onto microplates and exposed to the test compounds for 48 hours. The cell viability is then quantified by a colorimetric assay, the Microculture Tetrazolium Assay (Cancer Res., 1987, 47, 939-942).

Sequence of Bcl-2 protein (P10415 whole entry): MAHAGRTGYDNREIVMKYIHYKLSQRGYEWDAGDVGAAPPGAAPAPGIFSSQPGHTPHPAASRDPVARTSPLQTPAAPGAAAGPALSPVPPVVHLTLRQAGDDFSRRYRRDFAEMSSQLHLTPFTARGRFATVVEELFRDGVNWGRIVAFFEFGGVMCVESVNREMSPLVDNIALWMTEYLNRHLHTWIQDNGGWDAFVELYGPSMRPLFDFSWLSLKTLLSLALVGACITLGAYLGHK

Structure (SMILES) | IC50 (Bcl-2 protein) [nM] | IC50 ([1]; Homo sapiens) [nM] | IC50 [1] [nM]
Cc1cc(C(=O)N(c2ccc(O)cc2)c2ccc(O)cc2)cn1-c1cc(Cl)ccc1C(=O)N1Cc2ccccc2C[C@H]1CN1CCN(C)CC1 [Example 67, 1-(5-Chloro-2-{[(3S)-3-[(4-methylpiperazin-1-yl)methyl]-3,4-dihydroisoquinolin-2(1H)-yl]carbonyl}phenyl)-N,N-bis(4-hydroxyphenyl)-5-methyl-1H-pyrrole-3-carboxamide] | 5.9 | 101 | 
Cc1ccc(N(C(=O)c2cn(-c3cc(Cl)ccc3C(=O)N3Cc4ccccc4C[C@H]3CN3CCN(C)CC3)c3ccccc23)c2ccc(O)cc2)cc1 [Example 74, 1-(5-Chloro-2-{[(3S)-3-[(4-methylpiperazin-1-yl)methyl]-3,4-dihydroisoquinolin-2(1H)-yl]carbonyl}phenyl)-N-(4-hydroxyphenyl)-N-(4-methylphenyl)-1H-indole-3-carboxamide] | 4.2 | 162 | 
COc1ccc(C(=O)N2Cc3ccccc3C[C@H]2CN2CCCCC2)c(-n2cc(C(=O)N(c3ccccc3)c3ccc(O)cc3)c3ccccc32)c1 [Example 169, N-(4-Hydroxyphenyl)-1-{5-methoxy-2-[(3S)-3-(piperidin-1-ylmethyl)-1,2,3,4-tetrahydroisoquinoline-2-carbonyl]phenyl}-N-phenyl-1H-indole-3-carboxamide hydrochloride] | 108 | 854 | 
COc1ccc(C(=O)N2Cc3ccccc3C[C@H]2CN)c(-n2nc(C(=O)N(c3ccccc3)c3ccccc3)c3ccccc32)c1 [Example 150, 1-{2-[(3S)-3-(Aminomethyl)-1,2,3,4-tetrahydroisoquinoline-2-carbonyl]-5-methoxyphenyl}-N,N-diphenyl-1H-indazole-3-carboxamide] | 51 | 1320 | 
CCCCN(C(=O)c1cn(-c2cc3c(cc2C(=O)N2Cc4ccccc4C[C@H]2CN2CCN(C)CC2)OCO3)c2ccccc12)c1ccc(O)cc1 [Example 33, N-Butyl-N-(4-hydroxyphenyl)-1-(6-{[(3S)-3-[(4-methylpiperazin-1-yl)methyl]-3,4-dihydroisoquinolin-2(1H)-yl]carbonyl}-1,3-benzodioxol-5-yl)-1H-indole-3-carboxamide] | 4.4 | 199 | 
COc1cc(-n2cc(C(=O)N(c3ccccc3)C3CCCCC3)c3ccccc32)c(C(=O)N2Cc3ccccc3C[C@H]2CN2CCN(C)CC2)cc1O [Example 187, N-Cyclohexyl-1-{4-hydroxy-5-methoxy-2-[(3S)-3-[(4-methylpiperazin-1-yl)methyl]-1,2,3,4-tetrahydroisoquinoline-2-carbonyl}phenyl]-N-phenyl-1H-indole-3-carboxamide dihydrochloride] | 21.6 | 1990 | 
COc1ccc(N(C(=O)c2cn(-c3cc4c(cc3C(=O)N3Cc5ccccc5C[C@H]3CN3CCN(C)CC3)OCO4)c3ccccc23)c2ccc(O)cc2)cc1 [Example 49, N-(4-Hydroxyphenyl)-N-(4-methoxyphenyl)-1-(6-{[(3S)-3-[(4-methylpiperazin-1-yl)methyl]-3,4-dihydroisoquinolin-2(1H)-yl]carbonyl}-1,3-benzodioxol-5-yl)-1H-indole-3-carboxamide] | 13.1 | 136 | 
COc1cc(-n2cc(C(=O)N(c3ccccc3)c3ccc(C)cc3)c3ccccc32)c(C(=O)N2Cc3ccccc3C[C@H]2CN2CCN(C)CC2)cc1O [Example 193, 1-{4-Hydroxy-5-methoxy-2-[(3S)-3-[(4-methylpiperazin-1-yl)methyl]-1,2,3,4-tetrahydroisoquinoline-2-carbonyl]phenyl}-N-(4-methylphenyl)-N-phenyl-1H-indole-3-carboxamide] | 5.6 | 499 | 
CC(=O)Oc1ccc(N(C(=O)c2cn(-c3cc4c(cc3C(=O)N3Cc5ccccc5C[C@H]3CN3CCN(C)CC3)OCO4)c3ccccc23)c2ccc(C)cc2)cc1 [Example 60, 4-[(4-Methylphenyl){[1-(6-{[(3S)-3-[(4-methylpiperazin-1-yl)methyl]-3,4-dihydroisoquinolin-2(1H)-yl]carbonyl}-1,3-benzodioxol-5-yl)-1H-indol-3-yl]-carbonyl}amino]phenyl acetate] | 206 |  | 89.5
CN1CCN(C[C@@H]2Cc3ccccc3CN2C(=O)c2cc3c(cc2-n2cc(C(=O)N(c4ccc(O)cc4)c4ccc(O)cc4)c4ccccc42)OCO3)CC1 [Example 41, N,N-bis(4-Hydroxyphenyl)-1-(6-{[(3S)-3-[(4-methylpiperazin-1-yl)-methyl]-3,4-dihydroisoquinolin-2(1H)-yl]carbonyl}-1,3-benzodioxol-5-yl)-1H-indole-3-carboxamide] | 3.7 | 52.2 | 
Cc1cc(C(=O)N(c2ccc(O)cc2)c2cccc(N3CCN(C)CC3)c2)cn1-c1cc2c(cc1C(=O)N1Cc3ccccc3C[C@H]1C)OCO2 [Example 112, N-(4-Hydroxyphenyl)-5-methyl-1-(6-{[(3R)-3-methyl-3,4-dihydroisoquinolin-2(1H)-yl]carbonyl}-1,3-benzodioxol-5-yl)-N-[3-(4-methylpiperazin-1-yl)phenyl]-1H-pyrrole-3-carboxamide hydrochloride] | 11.8 | 281 | 
Cc1ccc(N(C(=O)c2cn(-c3cc4c(cc3C(=O)N3Cc5ccccc5C[C@H]3CN3CCN(C)CC3)OCO4)c3ccccc23)c2ccc3[nH]ccc3c2)cc1 [Example 55, N-(1H-Indol-5-yl)-N-(4-methylphenyl)-1-(6-{[(3S)-3-[(4-methylpiperazin-1-yl)methyl]-3,4-dihydroisoquinolin-2(1H)-yl]carbonyl}-1,3-benzodioxol-5-yl)-1H-indole-3-carboxamide] | 57.2 | 1020 | 
Cc1ccc(N(C(=O)c2cn(-c3cc(Br)ccc3C(=O)N3Cc4ccccc4C[C@H]3CN3CCN(C)CC3)c3ccccc23)c2ccc(O)cc2)cc1 [Example 57, 1-(5-Bromo-2-{[(3S)-3-[(4-methylpiperazin-1-yl)methyl]-3,4-dihydroisoquinolin-2(1H)-yl]carbonyl}phenyl)-N-(4-hydroxyphenyl)-N-(4-methylphenyl)-1H-indole-3-carboxamide] | 13.4 | 267 | 
CN1CCN(C[C@@H]2Cc3ccccc3CN2C(=O)c2ccc(Cl)cc2-n2cc(C(=O)N(c3ccc(O)cc3)c3ccc4[nH]ccc4c3)c3ccccc32)CC1 [Example 72, 1-(5-Chloro-2-{[(3S)-3-[(4-methylpiperazin-1-yl)methyl]-3,4-dihydroisoquinolin-2(1H)-yl]carbonyl}phenyl)-N-(4-hydroxyphenyl)-N-(1H-indol-5-yl)-1H-indole-3-carboxamide] | 4.5 | 43.4 | 
Cc1cc(C(=O)N(c2ccc(O)cc2)c2ccc3c(ccn3C)c2)cn1-c1cc(Br)ccc1C(=O)N1Cc2ccccc2C[C@H]1CN1CCN(C)CC1 [Example 70, 1-(5-Bromo-2-{[(3S)-3-[(4-methylpiperazin-1-yl)methyl]-3,4-dihydroisoquinolin-2(1H)-yl]carbonyl}phenyl)-N-(4-hydroxyphenyl)-5-methyl-N-(1-methyl-1H-indol-5-yl)-1H-pyrrole-3-carboxamide hydrochloride] | 2.9 | 63.8 | 

Source: US9765056B2, “Indole and pyrrole compounds, a process for their preparation and pharmaceutical compositions containing them” (LES LABORATOIRES SERVIER, priority 2013, dated 2017)
